Values joined by “and” are separate entries in the source; they are usually repeats but may differ in a detail not shown here. Equal values may be shown once. “Also recorded” adds a separate entry of the source.
How the values were obtained:
[1] = test system: lipid plasma compartment oxidation; experiment: Lipid plasma compartment oxidation, BODIPY 581/591 green fluorescence
Protocol: Plasma oxidation was measured fluorometrically using two different fluorescent probes: DCFH and BODIPY. DCFH-DA and BODIPY stock solutions were prepared in EtOH and dimethylsulfoxide, respectively, stored under nitrogen at −20° C. and used within two months. The final plasma dilution was 1:5 (v/v).
In the experiments using β-carotene, to avoid the filtering effect due to the carotenoid, the oxidation product of BODIPY was also detected at λex=520 and at λem-540 nm. The fluorescence measurements were carried out using a Perkin Elmer spectrofluorometer (model 650-10s) with 1 cm path length fluorescence cuvettes.
Briefly, β-carotene (dissolved in stabilized THF, 10 mg/ml) or α-tocopherol (4.3 mg/ml in EtOH) were added to plasma to reach a final concentration of 50 μM; the samples were then vortexed for 30 sec and incubated at 37±1° C. for 1 to 6 hr under nitrogen. […] Controls were prepared in the same way using solvent only.
The effect of adding the membrane soluble antioxidants, α-tocopherol (in EtOH) and β-carotene (in THF), pre-incubated with plasma, was studied. […] Values are mean±SD of five independent experiments. Statistical analysis: one-way ANOVA with Tukey's post test; *p<0.05, **p<0.01.
To monitor the aqueous phase oxidizability, AAPH was used as a hydrophilic radical generator and coupled to DCFH was used as the indicator.

[2] = 37° C; cited from earlier work
[3] = test system: aqueous plasma compartment oxidation; experiment: Aqueous plasma compartment oxidation, DCFH to DCF fluorescence; set-up: species or system human; conditions: for protective effect on aqueous compartment oxidation: 180 min of incubation
Protocol: The final plasma dilution was 1:5 (v/v).
DCFH was prepared from DCFH-DA by basic hydrolysis. Briefly 500 μl of DCFH-DA stock solution (1 mM) was mixed with 2 ml of NaOH (0.01 N at 4° C.) for 20 minutes while protected from the light. The mixture was then neutralized with 2 ml of HCl (0.01 N), diluted with PBS to a final concentration of 10 μM and stored in ice for no longer than 8 hrs (working solution); an aliquot of 100 μl was added to 200 μl of plasma and then diluted to a final volume of 1 ml with PBS. […] The excitation wavelength (λex) was set at […] (slit 5 nm) and emission (λem) at 520 nm (slit 5 nm).
Values are mean±SD of five independent experiments. […] Samples were incubated at 37° C. in the dark and at fixed times the DCF content measured by fluorescence (λex=502 nm, λem=520 nm).

[4] = ESR quenching of α-tocopheroxyl radical generated from α-tocopherol and DPPH; type: biochemical
Protocol: α-TOC+DPPH→α-TOC-O.+DPPHH [1]
For sample preparation, α-tocopherol (900 μM) and DPPH (600 μM) in ethanol solution were mixed for 20 sec and 50 μl of the reaction mixture transferred into a capillary ESR tube. (−)-Epigallocatechin-(3)-gallate (EGCG) was added to the mixture immediately after DPPH decolorization (30 sec after DPPH addition).

[5] = test system: lipid peroxyl radicals generated by MeO-AMVN in human plasma; experiment: Consumption of endogenous plasma antioxidants induced by MeO-AMVN (HPLC); conditions: for Residual Amount (%) of Cryptoxanthin / Residual Amount (%) of Lutein / Residual Amount (%) of Lycopene / Residual Amount (%) of Zeaxanthin / Residual Amount (%) of β-Carotene: MeO-AMVN 2 mM for 60 min
Protocol: After an overnight fast (10-12 h), blood from two healthy donors was collected in ethylenediaminetetraacetic acid (EDTA)-containing tubes. In order to reduce the variability of different donors, blood samples from these two subjects were collected weekly for the duration of the experiment. Immediately after collection, the samples were placed on ice and protected from light. Plasma was obtained by centrifugation at 800 g for 20 min at 4° C. and immediately used for the in vitro studies.
In the presence of 10-20 mM of AAPH, the flux of aqueous radicals calculated on the basis of the known rate of free radical generation from AAPH at 37° C.
In order to obtain homogeneous incorporation, the lipid soluble initiators were added slowly to the samples with a micro-syringe (10 μl) with stirring. The samples were then vortexed for 10 sec and incubated at 37±1° C. under aerobic conditions.
In a second similar experiment, other antioxidants were studied. […] A 100 μl aliquot of the reaction mixture was extracted for β-carotene and α-tocopherol analysis. Echinenone in ethanol was added as an internal standard. The mixture was extracted with CHCl3:CH3OH (2:1 v/v) containing 0.2% BHT and hexane containing 0.1% BHT, dried under nitrogen, redissolved in ethanol, and injected into an HPLC system with a C30 column (3 μm, 150×4.6 mm, YMC, Wilmington, N.C.).
For water-soluble antioxidant measurement, the mixtures were immediately deproteinized with perchloric acid (250 mM).
Results are expressed as percentages with respect to control samples prepared without the azo-compounds.

[6] = cited from earlier work
[7] = test system: aqueous peroxyl radicals generated by AAPH in human plasma; experiment: Consumption of endogenous plasma antioxidants induced by AAPH (HPLC); conditions: for Residual Amount (%) of Cryptoxanthin / Residual Amount (%) of Lutein / Residual Amount (%) of Lycopene / Residual Amount (%) of Zeaxanthin / Residual Amount (%) of β-Carotene: AAPH 20 mM for 120 min
Protocol: In a second similar experiment, other antioxidants were studied. […] Echinenone in ethanol was added as an internal standard.

Q: With `CC(C)(N=NC(C)(C)C(=N)N)C(=N)N.Cl.Cl` [AAPH, 2,2′-azobis (2-amidinopropane) dihydrochloride] as the molecule, how does the “delay of BODIPY oxidation in plasma” value ([1]; 20 mM AAPH) read?
A: 180 min

Q: And the “rate of free radical generation Ri” value [2]?
A: 1.36×10^−6 [AAPH] mol/liter/sec

Q: And the “start of propagation phase of DCFH oxidation in plasma” value ([3]; 10 mM AAPH)?
A: 180 min

Q: And the “start of propagation phase / lag phase of DCFH oxidation in plasma” value ([3]; 20 mM AAPH, dihydrochloride)?
A: 90 min and 120 min

Q: Which IC50 ([4]; 60 sec after the beginning of the reaction, read-out: IC50 quenching of α-TOC-O. ESR signal) does the source give for `O=C(O[C@@H]1Cc2c(O)cc(O)cc2O[C@@H]1c1cc(O)c(O)c(O)c1)c1cc(O)c(O)c(O)c1` [EGCG, (−)-Epigallocatechin-(3)-gallate] here?
A: 12.1 µM

Q: What about the “% inhibition of ESR signal” value ([4]; EGCG 2 μM, 60 sec after the beginning of the reaction) of the same molecule?
A: 8±1.3%

Q: What about the “quenching effect on ESR signal” value ([4]; EGCG 25 μM) of the same molecule?
A: almost complete disappearance

Q: What about the “protective effect on lipid compartment oxidation” value ([1]; EGCG 0.5 μM, MeO-AMVN 2 mM, 180 min of incubation) of the same molecule?
A: 13.01±0.56%

Q: What about the “protection of lipid compartment oxidation” value ([1]; EGCG 10 μM, MeO-AMVN 2 mM, 180 min of incubation) of the same molecule?
A: 68±2.3%

Q: What about the “lowest / starting effective concentration, lipid compartment” value ([1]; MeO-AMVN 2 mM, 180 min) of the same molecule?
A: 0.5 µM and 0.5 to 1 µM

Q: And the IC50 ([1]; read-out: IC50 in lipid compartment, MeO-AMVN 2 mM, after 180 min of incubation)?
A: 4.37 µM

Q: What about the “Residual Amount (%) of Cryptoxanthin” value ([5]; EGCG 0.5 μM) of the same molecule?
A: 54.38 ± 2.74%

Q: What about the “Residual Amount (%) of Lutein” value ([5]; EGCG 0.5 μM) of the same molecule?
A: 32.57 ± 4.14%

Q: What about the “Residual Amount (%) of Lycopene” value ([5]; EGCG 0.5 μM) of the same molecule?
A: 20.15 ± 3.22%

Q: And the “Residual Amount (%) of Zeaxanthin” value ([5]; EGCG 0.5 μM)?
A: 47.69 ± 5.85%

Q: And the “Residual Amount (%) of β-Carotene” value ([5]; EGCG 0.5 μM)?
A: 51.95 ± 1.68%

Q: And the “Residual Amount (%) of Cryptoxanthin” value ([5]; EGCG 1 μM)?
A: 52.36 ± 0.79%

Q: What about the “Residual Amount (%) of Lutein” value ([5]; EGCG 1 μM) of the same molecule?
A: 33.75 ± 3.94%

Q: What about the “Residual Amount (%) of Lycopene” value ([5]; EGCG 1 μM) of the same molecule?
A: 19.76 ± 2.62%

Q: What about the “Residual Amount (%) of Zeaxanthin” value ([5]; EGCG 1 μM) of the same molecule?
A: 49.64 ± 2.14%

Q: What about the “Residual Amount (%) of β-Carotene” value ([5]; EGCG 1 μM) of the same molecule?
A: 50.15 ± 3.35%

Q: And the “Residual Amount (%) of Cryptoxanthin” value ([5]; EGCG 5 μM)?
A: 45.16 ± 3.09%

Q: And the “Residual Amount (%) of Lutein” value ([5]; EGCG 5 μM)?
A: 44.64 ± 5.50%

Q: And the “Residual Amount (%) of Lycopene” value ([5]; EGCG 5 μM)?
A: 23.56 ± 1.78%

Q: And the “Residual Amount (%) of Zeaxanthin” value ([5]; EGCG 5 μM)?
A: 44.31 ± 0.94%

Q: And the “Residual Amount (%) of β-Carotene” value ([5]; EGCG 5 μM)?
A: 57.73 ± 0.54%

Q: And the “% α-tocopherol remaining” value ([5]; EGCG 10 μM, MeO-AMVN)?
A: 96.71±1.46%

Q: What about the “Residual Amount (%) of Cryptoxanthin” value ([5]; EGCG 10 μM) of the same molecule?
A: 41.84 ± 1.60%

Q: And the “Residual Amount (%) of Lutein” value ([5]; EGCG 10 μM)?
A: 40.36 ± 4.03%

Q: What about the “Residual Amount (%) of Lycopene” value ([5]; EGCG 10 μM) of the same molecule?
A: 26.72 ± 0.94%

Q: What about the “Residual Amount (%) of Zeaxanthin” value ([5]; EGCG 10 μM) of the same molecule?
A: 42.67 ± 2.04%

Q: What about the “Residual Amount (%) of β-Carotene” value ([5]; EGCG 10 μM) of the same molecule?
A: 59.13 ± 3.72%

Q: And the “sparing of carotenoids depletion” value ([5]; EGCG 0.5-10 μM, MeO-AMVN)?
A: ineffective; also recorded: failed to prevent

Q: What about the “redox potential E” value ([6]; E(EGCG-O., H+/EGCG-OH), E(A−., H+/AH−)) of the same molecule?
A: 0.48 V

Q: And the “ΔE to reduce tocopheroxyl radical” value ([6]; physiological pH)?
A: 0.06 V

Q: And the “concentration at which activity starts, aqueous compartment” value ([3]; AAPH 20 mM, 180 min)?
A: 0.25 µM

Q: What about the IC50 ([3]; AAPH 20 mM, after 180 min of incubation) of the same molecule?
A: 0.72 µM

Q: And the “protective effect on aqueous compartment oxidation” value ([3]; EGCG 10 μM, AAPH 20 mM)?
A: 93.02±2.02%

Q: What about the “protective effect on aqueous compartment oxidation” value ([3]; EGCG 0.25 AM, AAPH 20 mM) of the same molecule?
A: 20.25±0.34%

Q: And the “antioxidant efficiency in the aqueous in respect to the lipid domain” value ([3]; from IC50 after 180 min)?
A: six times greater

Q: What about the “Residual Amount (%) of Cryptoxanthin” value ([7]; EGCG 0.5 μM) of the same molecule?
A: 28.46 ± 3.35%

Q: And the “Residual Amount (%) of Lutein” value ([7]; EGCG 0.5 μM)?
A: 26.05 ± 4.26%

Q: What about the “Residual Amount (%) of Lycopene” value ([7]; EGCG 0.5 μM) of the same molecule?
A: 9.35 ± 5.18%

Q: What about the “Residual Amount (%) of Zeaxanthin” value ([7]; EGCG 0.5 μM) of the same molecule?
A: 25.61 ± 6.53%

Q: What about the “Residual Amount (%) of β-Carotene” value ([7]; EGCG 0.5 μM) of the same molecule?
A: 41.51 ± 6.64%

Q: And the “Residual Amount (%) of Cryptoxanthin” value ([7]; EGCG 1 μM)?
A: 36.21 ± 1.71 %

Q: What about the “Residual Amount (%) of Lutein” value ([7]; EGCG 1 μM) of the same molecule?
A: 40.64 ± 5.30 %

Q: And the “Residual Amount (%) of Lycopene” value ([7]; EGCG 1 μM)?
A: 18.06 ± 2.44%

Q: And the “Residual Amount (%) of Zeaxanthin” value ([7]; EGCG 1 μM)?
A: 48.78 ± 4.81 %

Q: What about the “Residual Amount (%) of β-Carotene” value ([7]; EGCG 1 μM) of the same molecule?
A: 54.38 ± 4.86 %

Q: And the “Residual Amount (%) of Cryptoxanthin” value ([7]; EGCG 5 μM)?
A: 48.88 ± 2.08 %

Q: What about the “Residual Amount (%) of Lutein” value ([7]; EGCG 5 μM) of the same molecule?
A: 56.05 ± 4.42 %

Q: And the “Residual Amount (%) of Lycopene” value ([7]; EGCG 5 μM)?
A: 25.26 ± 1.02 %

Q: What about the “Residual Amount (%) of Zeaxanthin” value ([7]; EGCG 5 μM) of the same molecule?
A: 58.89 ± 5.10 %

Q: And the “Residual Amount (%) of β-Carotene” value ([7]; EGCG 5 μM)?
A: 58.63 ± 3.30 %

Q: What about the “Residual Amount (%) of Cryptoxanthin” value ([7]; EGCG 10 μM) of the same molecule?
A: 56.45 ± 5.00 %

Q: What about the “Residual Amount (%) of Lutein” value ([7]; EGCG 10 μM) of the same molecule?
A: 63.13 ± 8.15 %

Q: What about the “Residual Amount (%) of Lycopene” value ([7]; EGCG 10 μM) of the same molecule?
A: 32.30 ± 4.24 %

Q: And the “Residual Amount (%) of Zeaxanthin” value ([7]; EGCG 10 μM)?
A: 62.36 ± 11.92 %

Q: What about the “Residual Amount (%) of β-Carotene” value ([7]; EGCG 10 μM) of the same molecule?
A: 64.35 ± 6.37 %

Q: And the “effect on consumption of ascorbic acid and uric acid” value ([7]; EGCG 0.5-10 μM, 20 mM AAPH)?
A: ineffective

From patent publication US20020182736A1, “Methods to measure lipid antioxidant activity” (TRUSTEES OF TUFTS COLLEGE, priority 2001, published 2002)
